Test results published in BindingDB's records for patent US11339122 (University of Pittsburgh, 2022).

Molecular target: Transient receptor potential cation channel subfamily V member 1 (Homo sapiens, UniProt Q8NER1)
Experiment: RTX Competition Binding Assay.
Description: Binding studies with [3H]RTX were carried out as follows. The binding assay mixtures were prepared in 1.5 ml centrifuge tubes and consisted of a fixed concentration (approximately 2 nM) of [3H]RTX (37 Ci/mmol specific activity, PerkinElmer Life Sciences), various concentrations of competing ligands, and […] of membranes from induced CHO-hTRPV1 expressing cells (approximately 1-3×10^6 cells) in Dulbecco's phosphate buffered saline (DPBS, with Ca2+ & Mg2+) for a total volume of 350 μl. The assay mix contained bovine serum albumin at a final concentration of 0.25 mg/ml (Cohn fraction V; Sigma-Aldrich, St. Louis, Mo.). In each set of experiments, nonspecific binding were determined in the presence of 200 nM non-radioactive RTX. The binding reaction was initiated by placing the assay mixture in a 37° C. shaking water bath for 60 minutes ([…]). The assay mixture was then chilled on ice for 2-3 min before adding 100 μl of α1-acid glycoprotein (2 mg/ml; Sigma-Aldrich) and mixed thoroughly. The tubes were kept on ice for an additional 10 min. The bound and free ligands were then separated by centrifugation (12,200 rpm for 15 minutes) in a Beckman Coulter centrifuge Allegra 21R. 200 μl of supernatant was collected for determination of free ligand. The remainder was removed by aspiration.

Transient receptor potential cation channel subfamily V member 1, sequence (Q8NER1 whole entry): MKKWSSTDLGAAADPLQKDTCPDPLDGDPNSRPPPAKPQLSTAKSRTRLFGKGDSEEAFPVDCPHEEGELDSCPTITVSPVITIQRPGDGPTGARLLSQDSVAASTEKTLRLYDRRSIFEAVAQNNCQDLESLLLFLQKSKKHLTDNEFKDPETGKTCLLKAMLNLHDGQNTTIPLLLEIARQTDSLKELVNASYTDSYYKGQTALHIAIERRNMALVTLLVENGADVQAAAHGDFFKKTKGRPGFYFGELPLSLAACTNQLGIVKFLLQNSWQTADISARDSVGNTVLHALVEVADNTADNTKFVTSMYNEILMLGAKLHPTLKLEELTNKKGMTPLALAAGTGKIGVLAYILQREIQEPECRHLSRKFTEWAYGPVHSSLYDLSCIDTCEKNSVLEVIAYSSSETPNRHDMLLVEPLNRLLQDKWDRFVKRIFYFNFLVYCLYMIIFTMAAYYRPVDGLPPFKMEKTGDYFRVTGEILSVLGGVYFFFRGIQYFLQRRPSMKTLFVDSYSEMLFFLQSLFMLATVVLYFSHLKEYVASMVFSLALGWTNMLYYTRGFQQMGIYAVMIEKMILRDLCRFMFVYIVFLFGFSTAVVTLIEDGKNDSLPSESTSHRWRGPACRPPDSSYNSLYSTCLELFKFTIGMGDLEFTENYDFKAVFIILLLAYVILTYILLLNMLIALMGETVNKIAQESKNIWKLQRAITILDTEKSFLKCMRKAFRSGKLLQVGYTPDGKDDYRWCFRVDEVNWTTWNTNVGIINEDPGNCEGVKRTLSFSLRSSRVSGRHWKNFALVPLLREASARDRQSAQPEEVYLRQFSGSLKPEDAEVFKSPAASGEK

Ki: 2.84 µM
Compound: CCOC(=O)c1ccc(NC(=O)Nc2ccc(F)cc2)cc1 [US11339122, Compound 5b]
